Reference: US9139608B2 (priority 2010, dated 2015)
Marks after values point to notes of the source that are not given here.

Legend:
[1] = Pharmacokinetic study: availability of test drug at site of action; type: in vivo; details: healthy rats, single oral dose 250 mg/kg, feces 0-24 h
Description: The blood samples were collected at 0, 0.25, 0.50, 1, 2, 3, 4, 5 and 6 hours after dosing. Plasma was obtained by centrifugation of blood at 7000 rpm for 15 min at 4° C. and kept at −20° C. until analysis was carried out. The animals were kept in the metabolic cages for collection of urine and feces.

[2] = system: TNBS induced IBD; assay: TNBS induced colitis in rats; type: in vivo, Male Wistar rats
From the text: In addition, increased body weight, decreased ulcer index and myeloperoxidase activity in colon is seen.
The trinitrobenzenesulfonic acid (TNBS) induced colitis is one of the standard animal models used for IBD. In this model, a single intracolonic administration of TNBS damages the colonic epithelium and induces prolonged chronic inflammation.
Procedure: In this study, Male Wistar rats (280-291 g) were fasted for 48 hrs, and put under anaesthesia. A 3 mm diameter cannula was inserted into the anus to the depth of 8 cm and 25 mg of TNBS dissolved in 0.25 ml of 30% ethanol solution was injected to each rat. The rats were positioned tail up for 1 minute. […] A healthy control group receiving only saline but no TNBS was maintained. On day 11, each group of rats were sacrificed by cervical dislocation and the colon was isolated for physical examination. Colon samples were preserved in 10% neutral formalin solution for histopathological evaluation.

[3] = system: acetic acid induced colitis; assay: Acetic acid induced colitis in rats; type: in vivo, Male Wistar rats; details: 50 mg/kg p.o. once daily, pretreatment for 3 days, n = 6
From the text: The acetic-acid induced colitis is a model of IBD with a similarity of the inflammatory mediators to that of acute human intestinal inflammation.
Procedure: In this model, initial injury was an epithelial necrosis and edema that variably extended into the lamina propria, submucosa, or external muscle layers, depending of the concentrations and length of exposure to acetic acid. […] Rats were fasted for 24 hrs, anesthetized and a cannula that has 3 mm diameter was inserted into the anus to the depth of 8 cm for instilling 2 ml of 3% acetic acid into the colon for 30 s. After 24 hrs, animals were sacrificed by cervical dislocation, the colon was isolated and the parameters of colitis were measured. […] The reversal of acetic acid induced conditions such as increased colon weight and colon weight to length ratio, which indicated beneficial effects of test drugs on colitis. These effects were further confirmed by decrease in macroscopic lesion score and myeloperoxidase activity in colon tissues.

[4] = system: H. pylori (ATCC 26695, strain MS-5); assay: H. Pylori infected rats with NSAID induced ulcers (RUT and PCR); type: in vivo, Helicobacter Pylori
[5] = system: Naproxen induced ulcers; assay: Naproxen induced ulcers in rats, prophylactic; type: in vivo, Male Wistar rats; details: then Naproxen 30 mg/kg p.o., n = 6
From the text: Gastric lesions induced by NSAIDS drugs such as Naproxen can aggravate inflammatory reactions in the GI tract.

[6] = system: histamine induced ulcers; assay: Histamine (stress) induced ulcers in rats, prophylactic; type: in vivo, Male Wistar rats; details: then Histamine 300 mg/kg i.p., n = 6
From the text: Stress induced gastric lesion is a condition that can cause or aggravate inflammatory reactions in the GI tract.

[7] = system: ethanol induced ulcers; assay: Ethanol induced ulcers in rats, prophylactic; type: in vivo, Male Wistar rats; details: then Ethanol 8 ml/kg p.o., n = 6
Description: Consumption of alcohol is another major factor resulting in gastric lesions.
The mean ulcer area in this study was measured to be 174.4 mm^2±5.814 mm^2 in the control group indicating the ulcerogenic effect of ethanol.

[8] = system: inflammatory bowel disease; assay: Prospective study in patients with IBD, patient reported outcome; type: in vivo, Humans; set-up: key to Bleeding, Patient Recorded Outcome / Frequent trips to the bathroom, Patient Recorded Outcome / Dependence on medication diarrhea and pain, Patient Recorded Outcome / Abdominal pain, Patient Recorded Outcome / Diarrhea, Patient Recorded Outcome: 0—Absence; 1—Mild; 2—Moderate; 3—Severe; details: 300 mg twice daily for 6 months; for Abdominal pain, Patient Recorded Outcome / Bleeding, Patient Recorded Outcome / Dependence on medication diarrhea and pain, Patient Recorded Outcome / Diarrhea, Patient Recorded Outcome / Frequent trips to the bathroom, Patient Recorded Outcome: IBD
Description: A prospective study to assess the efficacy of the test drug in patients with IBD was conducted.
Thereafter, the efficacy of the test drug was analyzed on the basis of patient reported outcome taken at the beginning and end of the study period. Observations: It was observed that all patients were experiencing relief from IBD related symptoms such as abdominal pain, diarrhea, rectal bleeding, fever, nausea and vomiting. It was further observed that there was significant improvement in bowel control which was seen from reduced frequency of visits to restrooms, dependence on diarrhoea medication and pain associated with bowel movement.

[9] = system: hemorrhoids; assay: Prospective uncontrolled pilot study in patients with hemorrhoids, patient reported outcome; type: in vivo, Humans; details: for Bloody stool, Median Value of Patient Reported Outcome / Difficulty to sit or walk, Median Value of Patient Reported Outcome / Edema, Median Value of Patient Reported Outcome / Itching, Median Value of Patient Reported Outcome / Pain, Median Value of Patient Reported Outcome: hemorrhoids, n = 5, scale 0 - Absence to 5 - Severe
Description: A prospective uncontrolled pilot study to access the efficacy of the test drug in patients with hemorrhoids was conducted. […] The efficacy of the test drug was analyzed on the basis of patient reported outcome taken at the beginning and end of the study period. […] It was further observed that there was significant relief in pain and irritation associated with bowel movement by the end of the treatment period.

[10] = TNBS induced IBD in rats, 50 mg/kg p.o. once daily, 10 days of treatment, n = 6
[11] = colon, TNBS induced IBD in rats, 50 mg/kg p.o. once daily, 10 days of treatment, n = 6
[12] = rats pretreated with 30 mg/kg p.o.
[13] = rats pretreated with 60 mg/kg p.o.
[14] = rats pretreated with 120 mg/kg p.o.
[15] = After Treatment, 300 mg twice daily for 15 days

C[C@H]1[C@H](C)CC[C@]2(C(=O)OC3O[C@H](CO[C@H]4O[C@H](CO)[C@@H](O[C@@H]5O[C@@H](C)[C@H](O)[C@@H](O)[C@H]5O)[C@H](O)[C@H]4O)[C@@H](O)[C@H](O)[C@H]3O)CC[C@]3(C)C(=CCC4[C@@]5(C)C[C@@H](O)[C@H](O)[C@@](C)(CO)[C@@H]5CC[C@]43C)[C@H]12 (stereo partly drawn) [Test Drug, Asiaticoside]
drug recovered from fecal matter [1]: about 81.42%
Colon length [2, 10]: 14.14 ± 0.53 mm
Colon weight [2, 10]: 1.71 ± 0.07 g
Colon width [2, 10]: 0.73 ± 0.13 mm
Body weight ([2]; TNBS induced IBD in rats, Day 0, before treatment, n = 6): 252.67 ± 3.121^ns1
Body weight ([2]; TNBS induced IBD in rats, Day 11 (10 days of treatment), 50 mg/kg p.o. once daily, n = 6): 293.00 ± 0.84***^
Body weight ([2]; TNBS induced IBD in rats, Normal (Day −2), before treatment, n = 6): 286.50 ± 3.14^ns1
rectal bleeding ([2]; TNBS induced IBD model, post treatment after TNBS administration): significantly reduced after 3rd day
Microscopic score [2, 11]: 4.40 ± 0.68
Myeloperoxidase activity [2, 11]: 0.02 ± 0.0003 U/mg
Colon length [3]: 16.22 ± 0.63 mm
Colon weight [3]: 1.53 ± 0.10 g
Colon width [3]: 0.71 ± 0.05 mm
Microscopic score ([3]; colon): 4.33 ± 0.71
Myeloperoxidase activity ([3]; colon): 0.02 ± 0.002 U/mg
ulcer area ([4]; H. Pylori infected rats with NSAID induced ulcers): dose dependent and time dependent reduction
eradication of H. Pylori infection (RUT, PCR) ([4]; H. pylori infected rats with Naproxen induced ulcers, 120 mg/kg p.o. twice daily): not effective in H. Pylori eradication
eradication of H. Pylori infection (RUT, PCR) ([4]; H. pylori infected rats with Naproxen induced ulcers, 240 mg/kg p.o. once daily): not effective in H. Pylori eradication
antibacterial action on H. Pylori infection ([4]; H. pylori infected rats with Naproxen induced ulcers, 360 mg/kg p.o. once daily): rapid antibacterial action on 3rd week
eradication of H. Pylori infection (RUT, PCR) ([4]; H. pylori infected rats with Naproxen induced ulcers, 360 mg/kg p.o. once daily, 9 weeks): eradication of H. Pylori infection in 9 weeks
Area of Ulceration [5, 12]: 5.49 ± 0.212^ns mm^2
Area of Ulceration [5, 13]: 4.52 ± 0.169**^ mm^2
Area of Ulceration [5, 14]: 2.632 ± 0.146***^ mm^2
Area of Ulceration [6, 12]: 9.242 ± 0.415* mm^2
Area of Ulceration [6, 13]: 7.062 ± 0.362*** mm^2
Area of Ulceration [6, 14]: 4.598 ± 0.323*** mm^2
Area of Ulceration [7, 12]: 159.3 ± 4.846* mm^2
Area of Ulceration [7, 13]: 137.6 ± 4.069*** mm^2
Area of Ulceration [7, 14]: 110.4 ± 2.305*** mm^2
Abdominal pain, Patient Recorded Outcome ([8]; Patient 1, After): 1
Bleeding, Patient Recorded Outcome ([8]; Patient 1, After): 0
Dependence on medication diarrhea and pain, Patient Recorded Outcome ([8]; Patient 1, After): 0
Diarrhea, Patient Recorded Outcome ([8]; Patient 1, After): 0
Frequent trips to the bathroom, Patient Recorded Outcome ([8]; Patient 1, After): 0
Abdominal pain, Patient Recorded Outcome ([8]; Patient 1, Before): 3
Bleeding, Patient Recorded Outcome ([8]; Patient 1, Before): 3
Dependence on medication diarrhea and pain, Patient Recorded Outcome ([8]; Patient 1, Before): 3
Diarrhea, Patient Recorded Outcome ([8]; Patient 1, Before): 3
Frequent trips to the bathroom, Patient Recorded Outcome ([8]; Patient 1, Before): 3
Abdominal pain, Patient Recorded Outcome ([8]; Patient 2, After): 0
Bleeding, Patient Recorded Outcome ([8]; Patient 2, After): 0
Dependence on medication diarrhea and pain, Patient Recorded Outcome ([8]; Patient 2, After): 0
Diarrhea, Patient Recorded Outcome ([8]; Patient 2, After): 0
Frequent trips to the bathroom, Patient Recorded Outcome ([8]; Patient 2, After): 1
Abdominal pain, Patient Recorded Outcome ([8]; Patient 2, Before): 3
Bleeding, Patient Recorded Outcome ([8]; Patient 2, Before): 3
Dependence on medication diarrhea and pain, Patient Recorded Outcome ([8]; Patient 2, Before): 3
Diarrhea, Patient Recorded Outcome ([8]; Patient 2, Before): 3
Frequent trips to the bathroom, Patient Recorded Outcome ([8]; Patient 2, Before): 3
Abdominal pain, Patient Recorded Outcome ([8]; Patient 3, After): 1
Bleeding, Patient Recorded Outcome ([8]; Patient 3, After): 0
Dependence on medication diarrhea and pain, Patient Recorded Outcome ([8]; Patient 3, After): 1
Diarrhea, Patient Recorded Outcome ([8]; Patient 3, After): 2
Frequent trips to the bathroom, Patient Recorded Outcome ([8]; Patient 3, After): 0
Abdominal pain, Patient Recorded Outcome ([8]; Patient 3, Before): 3
Bleeding, Patient Recorded Outcome ([8]; Patient 3, Before): 3
Dependence on medication diarrhea and pain, Patient Recorded Outcome ([8]; Patient 3, Before): 3
Diarrhea, Patient Recorded Outcome ([8]; Patient 3, Before): 3
Frequent trips to the bathroom, Patient Recorded Outcome ([8]; Patient 3, Before): 3
incidences of joint pain, skin diseases or eye related complications ([8]; three IBD patients): no incidences of joint pain, skin diseases or eye related complications
tolerability ([8]; three IBD patients): well tolerated
Bloody stool, Median Value of Patient Reported Outcome [9, 15]: 0
Difficulty to sit or walk, Median Value of Patient Reported Outcome [9, 15]: 1
Edema, Median Value of Patient Reported Outcome [9, 15]: 1
Itching, Median Value of Patient Reported Outcome [9, 15]: 2
Pain, Median Value of Patient Reported Outcome [9, 15]: 2
Bloody stool, Median Value of Patient Reported Outcome ([9]; Before Treatment): 5
Difficulty to sit or walk, Median Value of Patient Reported Outcome ([9]; Before Treatment): 5
Edema, Median Value of Patient Reported Outcome ([9]; Before Treatment): 3
Itching, Median Value of Patient Reported Outcome ([9]; Before Treatment): 5
Pain, Median Value of Patient Reported Outcome ([9]; Before Treatment): 5
relief of rectal bleeding ([9]; five hemorrhoid patients, 300 mg twice daily): all patients were relieved of rectal bleeding on the 3rd day of treatment
